Measurements taken from ChEMBL document CHEMBL1150733, “(+)-Curcuphenol and (+)-Curcudiol, Sesquiterpene Phenols from Shallow and Deep Water Collections of the Marine Sponge Didiscus flavus” (J Nat Prod, 1987).
Converted amounts (≈) assume the structure as drawn.

Assays:
HCT-8 = test: Cytotoxicity against human HCT8 cells; format: functional
Candida albicans = test: Antifungal activity against Candida albicans; format: functional
[1] = Cytotoxicity against human MDA-MB cells; format: functional
P388 = test: Cytotoxicity against mouse P388 cells; format: functional, cell-based
A549 = test: Cytotoxicity against human A549 cells; format: functional

MIC (Candida albicans) | Compound | MIC (HCT-8) | MIC [1] | IC50 (P388) | MIC (A549)
8 µg/mL (≈ 36.6 µM) | CC(C)=CCC[C@H](C)c1ccc(C)cc1O | 0.1 µg/mL (≈ 0.458 µM) | 0.1 µg/mL (≈ 0.458 µM) | 7 µg/mL (≈ 32.1 µM) | 10 µg/mL (≈ 45.8 µM)
250 µg/mL (≈ 1060 µM) | Cc1ccc([C@@H](C)CCCC(C)(C)O)c(O)c1 |  |  |  | 
